Read-outs that look alike come from different tables or passages of the source.
Legend:
Test in all cases: Alamar Blue cytotoxicity study
SUDHL4 cells = type: cell-based, human; details: for IC50: Homo sapiens
Protocol: Cells were incubated with 0.25, 0.5, 1, 2.5 or 5 μg/ml of Humalutin in cell culture flasks and incubated at 37° C./5% CO2. After 18-20 hours cells were washed and resuspended in fresh medium. Cell bound activity after washing was measured using a calibrated gamma detector (Cobra II auto-gamma detector, Packard Instrument Company, Meriden, Conn., USA). Cell concentration and viability was also measured after washing using Guava ViaCount Cell Dispersal Reagent for Flow Cytometry (Merck GaA, Darmstadt, Germany) and measured in a Guava EasyCyte 12HT (Merck KGaA, Darmstadt, Germany) to determine how well the cells survived the incubation. Cells were seeded in 96 well plates. […]
(§1) Cells were treated with either Humalutin, venetoclax or a combination of both and seeded into 96 well-plates. At each time point after treatment, cells were incubated with Alamar Blue (Thermo Fisher, DALL1100) for 4 hours and fluorescence measurements were performed using a multiplate reader Fluoroskan ascent FL to assess cell proliferation and viability. All experiments were done in duplicates using 2 samples in each experiment. Data were normalized to the untreated controls.
Cells were incubated with either 0, 0.5 μg/ml or 1 μg/ml Humalutin and the same procedure as described before for treatment with Humalutin alone and venetoclax alone was followed.
(§2) The Chou-Talalay model was used for synergy calculations using the Compusyn software. R (goodness of fit) was calculated for the individual treatments and should be over 0.90 in in vitro culture experiments in order to use with confidence the calculated combination index (CI). The CI is an indication of synergy: 0-0.9 is considered synergy. Synergysm grading was used as described in WO2006004917A2.
(§3) Cells were incubated with 0.25, 0.5, 1, 2.5 or 5 μg/ml of Humalutin in cell culture flasks and incubated at 37° C./5% CO2. After 18-20 hours cells were washed and resuspended in fresh medium. Cell bound activity after washing was measured using a calibrated gamma detector (Cobra II auto-gamma detector, Packard Instrument Company, Meriden, Conn., USA). Cell concentration and viability were also measured after washing using Guava ViaCount Cell Dispersal Reagent for Flow Cytometry (Merck GaA, Darmstadt, Germany) and measured in a Guava EasyCyte 12HT (Merck KGaA, Darmstadt, Germany) to determine how well the cells survived the incubation. Cells were seeded in 96 well plates. Alamar blue viability measurements were performed 120 h after seeding.
(§4) Cells were incubated with either 0 (control), 0.5 μg/ml or 1 μg/ml Humalutin for 18 to 20 hours. Cells were then washed and resuspended in fresh medium.

WSU-DLCL2 cells = type: cell-based; details: Homo sapiens, WSUDLCL2; WSU-DLCL2, 72 h incubation after seeding
Protocol: as §1, with “olaparib” for “venetoclax”
(§5) Cells were incubated with 0.25, 0.5, 1, 2.5 or 5 μg/ml of Humalutin in cell culture flasks and incubated at 37° C./5% CO2. After 18-20 hours cells were washed and resuspended in fresh medium. Cell bound activity after washing was measured using a calibrated gamma detector (Cobra II auto-gamma detector, Packard Instrument Company, Meriden, Conn., USA). Cell concentration and viability was also measured after washing using Guava ViaCount Cell Dispersal Reagent for Flow Cytometry (Merck GaA, Darmstadt, Germany) and measured in a Guava EasyCyte 12HT (Merck KGaA, Darmstadt, Germany) to determine how well the cells survived the incubation. Cells were seeded in 96 well plates.
(§6) Cells were seeded in 96 well plates pre-coated with from 1 to 100 μM olaparib in 0.2 ml medium and incubated at 37° C./5% CO2 for 72 hours before the cytotoxic effect was measured using alamar blue cell viability assay. […]

Rec-1 cells = type: cell-based; details: Homo sapiens, Rec1; Rec-1, 72 h incubation after seeding
Protocol: as §1, with “olaparib” for “venetoclax”
as §5, §6

DOHH2 cells = type: cell-based, human; details: for Combination Index (Chou-Talalay): 120 h; for IC50: Homo sapiens
Protocol: as §1, with “olaparib” for “venetoclax”
as §5
(§7) Cells were seeded in 96 well plates pre-coated with from 1 to 100 μM olaparib in 0.2 ml medium and incubated at 37° C./5% CO2 for 72 hours before the cytotoxic effect was measured using alamar blue cell viability assay.
(§8) Cells were incubated with either 0, 0.5 μg/ml or 1 μg/ml Humalutin and the same procedure as described before for treatment with humalutin alone and olaparib alone was followed. Concentrations of olaparib used were between 1 and 100 μM.
as §2, with “use” for “use with confidence”, “WO2006004917A2. […]” for “WO2006004917A2.”
as §3

Granta 519 cells = type: cell-based, human; details: for Combination Index (Chou-Talalay): Granta, 120 h; for IC50: Homo sapiens
Protocol: as §1, with “olaparib” for “venetoclax”
as §5, §7, §8
as §2, with “use” for “use with confidence”, “WO2006004917A2. […]” for “WO2006004917A2.”
as §3

U2932 cells = type: cell-based, human; details: for IC50: Homo sapiens
Protocol: as §1, with “olaparib” for “venetoclax”
as §5, §7, §8
as §2, with “use” for “use with confidence”, “WO2006004917A2. […]” for “WO2006004917A2.”
as §3, §4

O=C(c1cc(Cc2n[nH]c(=O)c3ccccc23)ccc1F)N1CCN(C(=O)C2CC2)CC1 [olaparib]
IC50 (SUDHL4 cells; SU-DHL-4, read-out: IC50 at 120 h, SUDHL-4, 120 h incubation after seeding): 22100 nM
IC50 (SUDHL4 cells; SU-DHL-4, SUDHL4, 72 h incubation after seeding, read-out: IC50): 1040 nM
Synergism grade by Combination Index, combination with Humalutin (SUDHL4 cells; SUDHL4, Humalutin 0.5 or 1 μg/ml, 72 h): moderate antagonism
IC50 (WSU-DLCL2 cells): 1260 nM
IC50 (Rec-1 cells): 721 nM
Combination Index (Chou-Talalay) (DOHH2 cells; DOHH2, olaparib dose 2 + Humalutin 1 μg/ml): 1.34
Combination Index (Chou-Talalay) (DOHH2 cells; DOHH2, olaparib dose 4 + Humalutin 1 μg/ml): 0.64
Combination Index (Chou-Talalay) (DOHH2 cells; DOHH2, olaparib dose 8 + Humalutin 1 μg/ml): 0.43
Combination Index (Chou-Talalay) (DOHH2 cells; DOHH2, olaparib dose 10 + Humalutin 1 μg/ml): 0.34
IC50 (DOHH2 cells; DOHH-2, read-out: IC50 at 120 h, DOHH2, 120 h incubation after seeding): 7560 nM
IC50 (DOHH2 cells; DOHH-2, DOHH2, 72 h incubation after seeding, read-out: IC50): 2060 nM
Synergism grade by Combination Index, combination with Humalutin (Granta 519 cells; Granta 519, Humalutin 0.5 or 1 μg/ml, 72 h): very strong synergism
Combination Index (Chou-Talalay) (Granta 519 cells; olaparib dose 2 + Humalutin 1 μg/ml): 1.77
Combination Index (Chou-Talalay) (Granta 519 cells; olaparib dose 4 + Humalutin 1 μg/ml): 0.15
Combination Index (Chou-Talalay) (Granta 519 cells; olaparib dose 8 + Humalutin 1 μg/ml): 0.06
Combination Index (Chou-Talalay) (Granta 519 cells; olaparib dose 10 + Humalutin 1 μg/ml): 0.10
IC50 (Granta 519 cells; read-out: IC50 at 120 h, Granta 519, 120 h incubation after seeding): 15000 nM
IC50 (Granta 519 cells; Granta 519, 72 h incubation after seeding, read-out: IC50): 2680 nM
IC50 (U2932 cells; read-out: IC50 at 120 h, U2932, 120 h incubation after seeding): 89100 nM
IC50 (U2932 cells; U2932, 72 h incubation after seeding, read-out: IC50): 1930 nM
Synergism grade by Combination Index, combination with Humalutin (U2932 cells; U2932, Humalutin 0.5 or 1 μg/ml, 72 h): very strong synergism
